Measured values taken from US20240082238A1, “COMPOSITIONS AND METHODS FOR TREATING CANCER” (UNIVERSITY OF IOWA RESEARCH FOUNDATION, priority 2021, published 2024).
pIC50: −log10 of the molar value.

Legend:
human Topo IIα = target: T1, human Topo IIα (Homo sapiens, UniProt P11388); assay: Topoisomerase II inhibition assay (plasmid-based); format: biochemical; conditions: drug final concentration 100 μM; read-out: percentage of Topo II inhibition
T1 construct: purchased TopoGEN Inc. TG1001-1A
Description: Topoisomerase II inhibition assay. A plasmid-based Topo II assay (Cat. No. TG1001-1A, TopoGEN Inc., Buena Vista, CO) was performed according to the manufacturer's instructions. In this experiment, 1 μL of tested compounds (PTX, CIP, CIP2b, ETO) at a concentration of 2 mM was mixed with 4 μL of the reaction buffer (mixture of buffer A (0.5 M Tris-HCl (pH 8), 1.50 M NaCl, 100 mM MgCl2, 5 mM Dithiothreitol, 300 μg BSA/mL) and buffer B (10× ATP Buffer), and deionized water was added to make 18 μL solution. This was followed by adding 1 μL of catenated DNA and 1 μL of human Topo IIα (8 U/μL) (drug final concentration was 100 μM). Additionally, decatenated DNA (De-CT DNA) and catenated DNA (CT DNA)±Topo II were used as a control (i.e., not containing drugs). Moreover, relaxed DNA was added as another control in this assay. Similar to Topo I assay, samples were then incubated on a heating block set at 37° C. for 30 minutes. Then, the reaction was stopped by the addition of a 5× stop buffer. Samples were then loaded directly into the wells of a 1% agarose gel containing 1 μg/mL ethidium bromide. The gel was run at 150 V until the dye front had traveled approximately 5 cm (run time was approximately 2 h). The gel was then washed with deionized water for 30 minutes before imaging. The image was taken using an Invitrogen iBright CL1500 Imaging System. The intensity of the final bands in the gel was quantified using ImageJ, and the results are expressed as the percentage of Topo II inhibition.

tubulin = assay: Fluorescence-based tubulin polymerization assay; format: biochemical; conditions: 3 μM
Text: Tubulin polymerization assay. Microtubules are one of the major cytoskeleton components in the cells, and they play an essential role in the spindle formation generated by α and β tubulin polymerization. Agents targeting microtubules function through two different mechanisms. To elaborate, several compounds like taxanes (e.g., PTX) promote the assembly of microtubules and are known to stabilize the microtubes whereas other compounds such as vinca alkaloid and colchicine are known to interrupt the spindle formation via inhibiting the tubulin polymerization; thereby, destabilize the microtubules. The result of both scenarios is metaphase arrest which induces apoptosis. To test the tubulin activity, a fluorescence-based tubulin polymerization assay (Cat. No. BK011P, Cytoskeleton Inc., Denver, CO) was performed according to the manufacturer's instructions. Briefly, stock solutions of PTX and CIP2b (in DMSO) were diluted with UltraPure™ water to make a final concentration of 3 μM. […] Before starting the experiment, the 96-well plate and fluorimeter (SpectraMax M5 Microplate Reader) were pre-warmed to 37° C. […] Samples and tubulin were added to a 96-well plate, and the plate was inserted into the plate reader. Kinetic measurements started immediately, and data were collected and analyzed.

Hec50co tumors = assay: Antitumor efficacy study, peritumoral SC injection; format: in vivo, athymic Nu/Nu mice
Description: Antitumor efficacy study following subcutaneous injection (SC) at the tumor site (peritumoral). Female athymic Nu/Nu mice were subcutaneously challenged with Hec50co cells (1×10^6 cells/mouse). When mice had palpable tumors, they were randomly distributed into 3 groups: PBS group (n=3), PTX group (n=4), and PTX+CIP2b group (n=4). Then, treatments were administered subcutaneously near the tumor site (i.e., peritumorally) in five doses on days 26, 30, 33, 37, and 40 post-tumor challenge. Each dose consisted of 200 μL of either PBS, 5 mg/kg PTX (Paclitaxel concentrate diluted in DPBS), or 5 mg/kg PTX+5 mg/kg CIP2b (CIP2b in DPBS:Tween-80:ethanol 85:10:5; further dilution was made using DPBS). Body weights and tumor volumes (using Equation 2) were monitored twice a week for up to 2 weeks after the last dose (i.e., up to day 53 post-tumor challenge). On the last day of the study (day 53 post-tumor challenge), mice were euthanized, and tumors were collected and their weights were measured.

LLC-PK1-WT cells = assay: Cytotoxicity assay (MTS), LLC-PK1-WT cells; format: cell-based, porcine; conditions: Sus scrofa; PTX alone, 72 h
Description: Cytotoxicity assay. Hec50co cells were seeded at 1500 cells per well in 96-well plates for 24 h in a complete medium. Later, the medium was removed and PTX, CIP2b, or CIP (all dissolved in DMSO and diluted in complete medium) were added to cells as either monotherapies or in combinations, and the plates were incubated for 72 hours. Then, the complete medium was removed and MTS reagent in the complete medium was added to wells, and the plates were incubated for 1-4 hours according to the manufacturer's protocol. Finally, the absorbance was recorded at 490 nm using a Spectra Max plus 384 Microplate Spectrophotometer (Molecular Devices, Sunnyvale, CA). Percentage cell viability was expressed as the average absorbance of the test group relative to that of the control group (untreated cells). The concentration that inhibits proliferation of 50% of cells compared to control (IC50) was calculated using GraphPad Prism (La Jolla, CA). Synergism was detected following the Chou-Talalay method (CI<1 indicates synergism) (Chou T C. Cancer research. 2010; 70(2):440-6, doi: 10.1158/0008-5472.CAN-09-1947) using CompuSyn software (Ver. 1.0).
P-gp efflux transporter. Overexpression of the MDR1 gene, reflected in the abundance of the P-gp efflux pump, is one of the major reasons for PTX chemoresistance in cancer. In this study, LLC-PK1-WT and LLC-PK1-MDR1 cell lines were used. […]

T1 sequence (P11388 whole entry): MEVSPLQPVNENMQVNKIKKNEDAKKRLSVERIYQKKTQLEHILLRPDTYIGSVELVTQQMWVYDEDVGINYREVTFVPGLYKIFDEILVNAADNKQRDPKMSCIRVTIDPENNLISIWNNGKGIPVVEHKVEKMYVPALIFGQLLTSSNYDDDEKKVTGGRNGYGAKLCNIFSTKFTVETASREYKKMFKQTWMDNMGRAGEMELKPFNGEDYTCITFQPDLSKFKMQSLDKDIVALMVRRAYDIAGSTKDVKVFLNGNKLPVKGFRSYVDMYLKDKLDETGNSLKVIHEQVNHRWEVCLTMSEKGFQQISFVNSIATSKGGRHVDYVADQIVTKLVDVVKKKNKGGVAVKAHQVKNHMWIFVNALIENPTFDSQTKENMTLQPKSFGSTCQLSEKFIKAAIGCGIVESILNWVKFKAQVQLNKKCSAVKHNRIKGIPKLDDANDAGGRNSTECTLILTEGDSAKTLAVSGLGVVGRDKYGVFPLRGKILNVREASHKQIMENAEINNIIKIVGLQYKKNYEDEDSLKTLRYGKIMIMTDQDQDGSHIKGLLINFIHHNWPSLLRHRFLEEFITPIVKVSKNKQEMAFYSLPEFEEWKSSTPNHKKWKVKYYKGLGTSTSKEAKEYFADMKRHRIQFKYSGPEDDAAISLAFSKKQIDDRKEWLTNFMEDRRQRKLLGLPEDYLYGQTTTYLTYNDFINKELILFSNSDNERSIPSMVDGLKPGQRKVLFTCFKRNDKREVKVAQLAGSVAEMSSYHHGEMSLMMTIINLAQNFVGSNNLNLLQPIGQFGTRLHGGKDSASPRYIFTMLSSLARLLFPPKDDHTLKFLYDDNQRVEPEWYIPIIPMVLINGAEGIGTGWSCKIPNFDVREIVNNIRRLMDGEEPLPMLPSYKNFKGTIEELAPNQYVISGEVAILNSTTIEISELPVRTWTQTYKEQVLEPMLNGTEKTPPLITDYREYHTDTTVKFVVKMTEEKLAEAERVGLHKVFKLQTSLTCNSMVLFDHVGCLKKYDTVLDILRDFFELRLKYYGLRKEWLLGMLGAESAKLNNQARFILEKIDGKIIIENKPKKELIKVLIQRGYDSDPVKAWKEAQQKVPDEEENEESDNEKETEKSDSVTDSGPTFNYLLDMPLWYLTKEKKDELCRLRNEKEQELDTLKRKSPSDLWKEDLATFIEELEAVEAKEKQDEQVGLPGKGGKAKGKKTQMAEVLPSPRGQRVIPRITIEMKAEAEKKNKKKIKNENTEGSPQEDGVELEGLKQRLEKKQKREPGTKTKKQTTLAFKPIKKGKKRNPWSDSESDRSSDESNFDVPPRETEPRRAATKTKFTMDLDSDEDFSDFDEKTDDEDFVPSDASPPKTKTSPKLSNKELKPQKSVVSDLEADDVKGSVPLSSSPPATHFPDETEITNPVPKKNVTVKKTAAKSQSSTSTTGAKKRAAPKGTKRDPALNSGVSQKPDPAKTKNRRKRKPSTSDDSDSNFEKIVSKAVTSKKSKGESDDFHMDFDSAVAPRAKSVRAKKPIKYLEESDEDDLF

In the case of CC(=O)O[C@H]1C(=O)[C@@]2(C)[C@H]([C@H](OC(=O)c3ccccc3)[C@]3(O)C[C@H](OC(=O)[C@H](O)[C@@H](NC(=O)c4ccccc4)c4ccccc4)C(C)=C1C3(C)C)[C@]1(OC(C)=O)CO[C@@H]1C[C@@H]2O [PTX, paclitaxel], the inhibition at 100 µM (human Topo IIα) was 8%, the “rate of tubulin polymerization” value (tubulin) was “promoted” and the “onset of tubulin polymerization” value (tubulin; tubulin alone 15 min) was “approximately 5 minutes”. The “average weight of tumors” value (Hec50co tumors; day 53, SC treatment) was “did not show a significant difference against either the untreated group or the combination group”, the “average tumor volumes vs PBS” value (Hec50co tumors; day 53, 5 mg/kg PTX SC, five doses) was “smaller than PBS control mice albeit not significantly” and the pIC50 (LLC-PK1-WT cells) was 7.67.
